# Target: T1, human ALK5 (Homo sapiens, UniProt P36897)
# T1 sequence (P36897 162-503): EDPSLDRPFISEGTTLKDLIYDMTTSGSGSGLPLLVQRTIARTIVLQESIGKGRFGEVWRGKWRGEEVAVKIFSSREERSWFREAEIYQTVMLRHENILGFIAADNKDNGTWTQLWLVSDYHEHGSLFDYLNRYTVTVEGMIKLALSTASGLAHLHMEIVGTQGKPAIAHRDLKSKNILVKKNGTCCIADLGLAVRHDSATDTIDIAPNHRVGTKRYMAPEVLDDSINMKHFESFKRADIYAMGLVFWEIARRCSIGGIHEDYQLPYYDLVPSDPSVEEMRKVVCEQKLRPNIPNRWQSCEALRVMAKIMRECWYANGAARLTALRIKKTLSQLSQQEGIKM
# Assay: ALK5 Enzyme Assay 2 (fluorescence polarisation probe displacement)
# Type: binding
# Set-up: 6His tagged human ALK5 (residues162-503) was grown and purified from insect cells; 6His; made in house; host or cells: insect cells
# Conditions: read-out: EAA2: activity (μM) using Enzyme Assay 2
# Procedure, shortened: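 Recombinant ALK5 (3 μg/mL) incubated with test compound in 50 mM HEPES pH7.4, 10 mM MgCl2, 1 mM DTT, 0.01% CHAPS. Displacement of a fluorescent quinazoline-based ALK5 probe (50 nM final) in presence of 1 μM ATP read by fluorescence polarisation.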
row,SMILES,IC50 [µM]
1,"Cc1ccc(Oc2ccnc(Nc3cccc(CN4CCN(C(=O)CC(N)=O)CC4)c3)c2)c(C)n1 [Example 187, 3-{4-[(3-{[4-(2,6-Dimethylpyridin-3-yl)oxypyridin-2-yl]amino}phenyl)methyl]piperazin-1-yl}-3-oxopropanamide]",0.0232
2,"Cc1ccc(Oc2ccnc(Nc3cccc(CN4CCN(CC(=O)NC5CC5)CC4)c3)c2)c(C)n1 [Example 188, N-cyclopropyl-2-{4-[(3-{[4-(2,6-dimethylpyridin-3-yl)oxypyridin-2-yl]amino}phenyl)methyl]piperazin-1-yl}acetamide]",0.00691
3,"Cc1ccc(Oc2ccnc(Nc3cccc(CN4CCN(C(=O)CCN)CC4)c3)c2)c(C)n1 [Example 189, 3-Amino-1-{4-[(3-{[4-(2,6-dimethylpyridin-3-yl)oxypyridin-2-yl]-amino}phenyl)methyl]piperazin-1-yl}propan-1-one]",0.0262
4,"Cc1ccc(Oc2ccnc(Nc3cccc(CN4CCN(C(C)C(N)=O)CC4)c3)c2)c(C)n1 (centres unmarked) [Example 190, 2-14-[3-({4-[(2,6-dimethylpyridin-3-yl)oxylpyridin-2-yl}amino)-benzyl]piperazin-1-yl}propanamide]",0.0322
5,CNC(=O)CN1CCN(Cc2cccc(Nc3cc(Oc4ccc(C)nc4C)ccn3)c2)CC1 [Example 191],0.0213
6,"Cc1ccc(Oc2ccnc(Nc3cccc(CN4CCN(CCN5CCNC5=O)CC4)c3)c2)c(C)n1 [Example 192, 1-(2-{4-[(3-{[4-(2,6-Dimethylpyridin-3-yl)oxypyridin-2-yl]-amino}phenyl)methyl]piperazin-1-yl}ethyl)imidazolidin-2-one]",0.0155
7,"Cc1ccc(Oc2ccnc(Nc3cccc(CN4CCN(C)CC4)c3)c2)c(C)n1 [Example 193, 4-(2,6-Dimethylpyridin-3-yl)oxy-N-{3-[(4-methylpiperazin-1-yl)-methyl]phenyl}pyridin-2-amine]",0.00427
8,"Cc1ccc(Oc2ccnc(Nc3cccc(C(=O)NC4CC4)c3)c2)c(C)n1 [Example 194A, N-Cyclopropyl-3-{[4-(2,6-dimethylpyridin-3-yl)oxypyridin-2-yl]-amino}benzamide]",0.0457
9,"Cc1cc(Oc2ccnc(Nc3ccc(OCCNC(=O)OC(C)(C)C)cc3)c2)c(-c2ccccn2)nc1C [Example 195, tert-Butyl N-[2-(4-{[4-(5,6-dimethyl-2-pyridin-2-ylpyridin-3-yl)-oxypyridin-2-yl]amino}phenoxy)ethyl]carbamate]",0.0121

# Next, values leading:
row,IC50 [µM],SMILES
1,0.00903,"Cc1cc(Oc2ccnc(Nc3ccc(OCCCNC(=O)OC(C)(C)C)cc3)c2)c(-c2ccccn2)nc1C [Example 196, tert-Butyl N-[3-(4-{[4-(5,6-dimethyl-2-pyridin-2-ylpyridin-3-yl)-oxypyridin-2-yl]amino}phenoxy)propyl]carbamate]"
2,0.0061,"Cc1cc(Oc2ccnc(Nc3ccc(C(=O)NCCCNC(=O)OC(C)(C)C)cc3)c2)c(-c2ccccn2)nc1C [Example 197, tert-Butyl N-{3-[(4-{[4-(5,6-dimethyl-2-pyridin-2-ylpyridin-3-yl)-oxypyridin-2-yl]amino}benzoyl)amino]propyl}carbamate]"
3,0.0147,"Cc1cc(Oc2ccnc(Nc3ccc(C(=O)NCCNC(=O)OC(C)(C)C)cc3)c2)c(-c2ccccn2)nc1C [Example 198, tert-Butyl N-{2-[(4-{[4-(5,6-dimethyl-2-pyridin-2-ylpyridin-3-yl)oxypyridin-2-yl]amino}benzoyl)amino]ethyl}carbamate]"
4,0.00145,"Cc1cc(Oc2ccnc(Nc3ccc(C(=O)NCCCN)cc3)c2)c(-c2ccccn2)nc1C [Example 199, N-(3-Aminopropyl)-4-{[4-(5,6-dimethyl-2-pyridin-2-ylpyridin-3-yl)oxypyridin-2-yl]amino}benzamide]"
5,0.00485,"Cc1cc(Oc2ccnc(Nc3ccc(C(=O)NCCN)cc3)c2)c(-c2ccccn2)nc1C [Example 200, N-(2-Aminoethyl)-4-{[4-(5,6-dimethyl-2-pyridin-2-ylpyridin-3-yl)oxypyridin-2-yl]amino}benzamide]"
